Test results taken from the NIST ThermoML archive (doi:10.1016/j.jct.2012.01.025).

Experiments:
[1] = molar enthalpy of vaporization or sublimation; conditions: 298.15 K; Crystal; Drop calorimetry
[2] = for vapor or sublimation pressure: Closed cell (Static) method
[3] = Molar enthalpy of transition or fusion; conditions: Crystal; DSC

c1ccc2c(c1)-c1cccc3cccc-2c13 [fluoranthene]
Conditions | Molar enthalpy of transition or fusion [kcal/mol] | molar enthalpy [kcal/mol]
[1] | – | 23
[3] | 4.63 | –

[2]
Conditions | Normal melting temperature [°C] | vapor or sublimation pressure [kPa]
348.83 K, Crystal | – | 0.00042
351.82 K, Crystal | – | 0.00056
354.78 K, Liquid | – | 0.00117
354.79 K, Crystal | – | 0.00076
356.76 K, Liquid | – | 0.00137
357.77 K, Crystal | – | 0.00101
360.71 K, Liquid | – | 0.00185
360.73 K, Crystal | – | 0.0013
363.72 K, Crystal | – | 0.00171
366.68 K, Crystal | – | 0.00225
366.68 K, Liquid | – | 0.0029
368.53 K, Liquid | – | 0.0033
369.65 K, Crystal | – | 0.00292
370.63 K, Liquid | – | 0.00384
372.57 K, Liquid | – | 0.00438
372.62 K, Crystal | – | 0.00379
374.61 K, Liquid | – | 0.00509
375.59 K, Crystal | – | 0.00491
378.57 K, Liquid | – | 0.0067
382.51 K, Liquid | – | 0.00865
384.49 K, Liquid | – | 0.00979
386.46 K, Liquid | – | 0.01118
388.46 K, Liquid | – | 0.01265
390.43 K, Liquid | – | 0.01425
392.43 K, Liquid | – | 0.0161
394.39 K, Liquid | – | 0.0181
396.38 K, Liquid | – | 0.02041
398.36 K, Liquid | – | 0.02287
400.35 K, Liquid | – | 0.02578
402.34 K, Liquid | – | 0.02887
404.3 K, Liquid | – | 0.03224
Crystal, DTA | 109.69 | –
